The source of these data is ChEMBL document CHEMBL1201862, “PubChem BioAssay data set” (2004).

Test systems include A498; A549; EKVX; HCT-116; HCT-15; HT-29; IGROV-1; MOLT-4; Malme-3M; NCI-H226; NCI-H23; NCI-H460; OVCAR-4; OVCAR-8; SF-268; SK-MEL-28; SK-OV-3; UACC-257.
Test in all cases: inhibition of tumour cell growth, NCI panel, 48 h

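These data come from cells grown in 96-well plates and exposed to compound for 48 hours at five concentrations. GI50 = concentration required for 50% inhibition of growth.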 Activity calls are given as the source filed them. Rule as the data show it: active = GI50 up to about 1.1 µM and inactive = higher. Where only a bound is given, the exact number is not on record here.

As to `COC(=O)C1C(C(=O)OC)C2(OC)c3ccccc3-c3ccccc3C12` (stereo not drawn), the GI50 in the assay with A498 is 44 µM (inactive); with A549, 36.4 µM (inactive); in the assay on EKVX, 28.7 µM (inactive); in the assay on HCT-116, 35.4 µM (inactive); in the assay on HCT-15, 28.4 µM; with HT-29, 32.2 µM (inactive). The GI50 was 35 µM (inactive) in the assay with IGROV-1; 12.1 µM (inactive) with MOLT-4; 47.9 µM (inactive) in the assay with Malme-3M; 49.5 µM (inactive) in the assay with NCI-H226; 27.6 µM (inactive) with NCI-H23; 34.4 µM (inactive) in the assay with NCI-H460. Besides, the GI50 with OVCAR-4 was 48.2 µM (inactive); in the assay on OVCAR-8, 49.7 µM (inactive); with SF-268, 45.1 µM (inactive); in the assay with SK-MEL-28 it was 90.2 µM (inactive); in the assay on SK-OV-3, 80 µM (inactive); with UACC-257, 24.2 µM (inactive).

As for `Cc1cccc(C(C)(C)C)c1NC(=O)CCc1n[nH]c(=S)o1`, the GI50 with A498 was > 100 µM (inactive); in the assay on A549 it was > 100 µM (inactive); with EKVX, > 100 µM (inactive); with HCT-116, 17.6 µM (inactive); in the assay on HCT-15, 21.7 µM; in the assay on HT-29 it was > 100 µM (inactive). For the same compound, the GI50 in the assay with IGROV-1 is > 100 µM (inactive); in the assay on MOLT-4, > 100 µM (inactive); in the assay with Malme-3M, > 100 µM (inactive); in the assay with NCI-H226, 0.3 µM (active); in the assay on NCI-H23, > 100 µM (inactive); in the assay on NCI-H460, > 100 µM (inactive). For the same compound, the GI50 in the assay with OVCAR-4, in the assay with OVCAR-8, in the assay with SF-268, with SK-MEL-28, with SK-OV-3 and in the assay with UACC-257 was > 100 µM (inactive) each time.

In the case of `O=C(Cc1nc2ccccc2s1)C(=O)Nc1ccc(Cl)cc1`, the GI50 with A498 was > 100 µM (inactive); in the assay on A549, > 100 µM (inactive); in the assay with EKVX, > 100 µM (inactive); in the assay with HCT-116, > 100 µM (inactive); with HCT-15, > 100 µM; in the assay with HT-29, > 100 µM (inactive). Besides, the GI50 in the assay on IGROV-1, in the assay on MOLT-4, in the assay on Malme-3M, in the assay on NCI-H226, with NCI-H23 and in the assay with NCI-H460 was > 100 µM (inactive) throughout. For the same compound, the GI50 in the assay on OVCAR-4, in the assay on OVCAR-8, in the assay with SF-268, with SK-MEL-28, with SK-OV-3 and in the assay with UACC-257 was > 100 µM (inactive) each time.

Turning to `Cc1cccc(NC(=O)CSc2nnc(Cc3ccccc3)o2)c1`, the GI50 is > 100 µM (inactive) in the assay on A498; > 100 µM (inactive) with A549; > 100 µM (inactive) in the assay on EKVX; > 100 µM (inactive) in the assay on HCT-116; > 100 µM in the assay on HCT-15; > 100 µM (inactive) with HT-29. Moreover, the GI50 in the assay on IGROV-1, in the assay on MOLT-4, in the assay on Malme-3M, with NCI-H226, with NCI-H23 and with NCI-H460 was > 100 µM (inactive) throughout. Further, the GI50 in the assay with OVCAR-4, in the assay on OVCAR-8, with SF-268, with SK-MEL-28, in the assay with SK-OV-3 and in the assay with UACC-257 was > 100 µM (inactive) each time.

`COC(=O)[C@@H]1C(=O)O[C@@H](c2cc(OC)c(OC)cc2OC)[C@@H]1C(=O)OC.COC(=O)[C@H]1C(=O)O[C@@H](c2cc(OC)c(OC)cc2OC)[C@@H]1C(=O)OC`: the GI50 in the assay on A498 is > 100 µM (inactive); with A549 it was > 100 µM (inactive); in the assay on EKVX, > 100 µM (inactive); with HCT-116, > 100 µM (inactive); in the assay on HCT-15 it was > 100 µM; in the assay on HT-29 it was > 100 µM (inactive). The GI50 in the assay with IGROV-1, in the assay with MOLT-4, with Malme-3M, with NCI-H226, in the assay with NCI-H23 and with NCI-H460 was > 100 µM (inactive) throughout. Besides, the GI50 in the assay with OVCAR-4, in the assay on OVCAR-8, in the assay on SF-268, in the assay on SK-MEL-28, with SK-OV-3 and with UACC-257 was > 100 µM (inactive) throughout.

On to `CCOC(=O)C12CCCC1(O)N(NC(=O)OC(C)(C)C)C(C)=C2C(=O)OC` (stereo not drawn), for which the GI50 in the assay with A498 is > 100 µM (inactive); with A549, > 100 µM (inactive); in the assay with EKVX, > 100 µM (inactive); with HCT-116, > 100 µM (inactive); with HCT-15, > 100 µM; in the assay with HT-29 it was > 100 µM (inactive). Further, the GI50 in the assay with IGROV-1, with MOLT-4, in the assay on Malme-3M, with NCI-H226, with NCI-H23 and in the assay with NCI-H460 was > 100 µM (inactive) in each case. In addition, the GI50 in the assay with OVCAR-4 is > 100 µM (inactive); in the assay on OVCAR-8, > 100 µM (inactive); in the assay with SF-268 it was > 100 µM (inactive); in the assay on SK-MEL-28, > 10 µM (inactive); in the assay with SK-OV-3, > 100 µM (inactive); with UACC-257, > 100 µM (inactive).

As to `Cc1ccc2c(c1)SC(c1cc3c(cc1Br)OCO3)S2` (stereo not drawn), the GI50 is > 31.6 µM (inactive) in the assay with A498; > 31.6 µM (inactive) in the assay on A549; > 31.6 µM (inactive) with EKVX; 23.9 µM (inactive) in the assay with HCT-116; 25.4 µM with HCT-15; 18.7 µM (inactive) in the assay on HT-29. For the same compound, the GI50 in the assay with IGROV-1 is > 31.6 µM (inactive); in the assay with MOLT-4, 31.4 µM (inactive); with Malme-3M, > 31.6 µM (inactive); with NCI-H226, > 31.6 µM (inactive); with NCI-H23, > 31.6 µM (inactive); in the assay with NCI-H460 it was > 31.6 µM (inactive). Also, the GI50 in the assay with OVCAR-4, in the assay on OVCAR-8, in the assay on SF-268, with SK-MEL-28, in the assay on SK-OV-3 and with UACC-257 was > 31.6 µM (inactive) throughout.

For `CC1C=C(OC(=O)c2ccccc2)C(=O)C(n2cc(F)c(=O)[nH]c2=O)O1` (stereo not drawn), the GI50 in the assay on A498 is > 100 µM (inactive); in the assay with A549, 38.2 µM (inactive); in the assay on EKVX it was > 100 µM (inactive); in the assay with HCT-116, 38.5 µM (inactive); in the assay with HCT-15, 50.6 µM; with HT-29 it was 18.9 µM (inactive). Besides, the GI50 in the assay with IGROV-1 is > 100 µM (inactive); with MOLT-4, 51.5 µM (inactive); with Malme-3M, 51.2 µM (inactive); with NCI-H226, > 100 µM (inactive); in the assay on NCI-H23, 53.6 µM (inactive); in the assay on NCI-H460 it was 19.5 µM (inactive). Also, the GI50 with OVCAR-4 was 53.2 µM (inactive); with OVCAR-8 it was 84.3 µM (inactive); in the assay on SF-268 it was > 100 µM (inactive); with SK-MEL-28, 53.1 µM (inactive); in the assay on SK-OV-3, > 100 µM (inactive); in the assay with UACC-257 it was > 100 µM (inactive).

With `NC(CCCCNCc1ccccc1O)C(=O)O` (stereo not drawn), the GI50 is > 100 µM (inactive) with A498; > 100 µM (inactive) with A549; > 100 µM (inactive) with EKVX; > 100 µM (inactive) in the assay on HCT-116; > 100 µM in the assay on HCT-15; > 100 µM (inactive) in the assay with HT-29. Besides, the GI50 with IGROV-1, in the assay with MOLT-4, in the assay with Malme-3M, in the assay with NCI-H226, with NCI-H23 and with NCI-H460 was > 100 µM (inactive) in each case. Also, the GI50 with OVCAR-4, with OVCAR-8, in the assay with SF-268, with SK-MEL-28, with SK-OV-3 and in the assay on UACC-257 was > 100 µM (inactive) throughout.

For the compound `O=C1CCC(=O)N2CCCCN12`, the GI50 is > 100 µM (inactive) in the assay with A498; > 100 µM (inactive) with A549; > 100 µM (inactive) in the assay with EKVX; > 100 µM (inactive) with HCT-116; > 100 µM in the assay with HCT-15; > 100 µM (inactive) with HT-29. Further, the GI50 in the assay with IGROV-1, in the assay with MOLT-4, in the assay on Malme-3M, in the assay on NCI-H226, with NCI-H23 and in the assay on NCI-H460 was > 100 µM (inactive) throughout. Besides, the GI50 with OVCAR-4, in the assay on OVCAR-8, in the assay with SF-268, with SK-MEL-28, in the assay on SK-OV-3 and in the assay with UACC-257 was > 100 µM (inactive) in each case.

With `Cc1cccc(C)c1NC(=O)CCc1nnc2s/c(=C\c3ccc(Cl)cc3)c(=O)n12`, the GI50 with A498 is > 100 µM (inactive); in the assay on A549 it was > 100 µM (inactive); in the assay with EKVX, > 100 µM (inactive); in the assay on HCT-116, 25.2 µM (inactive); with HCT-15, 19.1 µM; in the assay on HT-29, > 100 µM (inactive). Besides, the GI50 is 72.1 µM (inactive) in the assay on IGROV-1; > 100 µM (inactive) in the assay with MOLT-4; > 100 µM (inactive) with Malme-3M; 97.5 µM (inactive) in the assay on NCI-H226; > 100 µM (inactive) with NCI-H23; > 100 µM (inactive) in the assay on NCI-H460. Also, the GI50 in the assay on OVCAR-4 was > 100 µM (inactive); in the assay on OVCAR-8, > 100 µM (inactive); with SF-268 it was > 100 µM (inactive); in the assay with SK-MEL-28, > 100 µM (inactive); with SK-OV-3 it was 31.8 µM (inactive); in the assay with UACC-257, > 100 µM (inactive).
